Here are results for twelve compounds from patent US5585382A, “Polycyclic and heterocyclic chromophores for bis-imide tumoricidals” (The DuPont Merck Pharmaceutical Company, priority 1995, dated 1996).

Data set [1] has as its system Murine leukemia L1210 cells. Kind of data set: In vitro growth inhibition of L1210 cells (MTT, 72 hr). It is filed as cell-based. Particulars: Mus musculus, read-out: L1210 IC50. In short, it runs like this: (§1)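 Cells seeded on day 0 (1×10^3 L1210 or 8×10^2 Clone A per well), graded compound concentrations added on day 1, then 72 hr at 37 °C. MTT 4 h, formazan dissolved in acidic isopropanol, read at 570/630 nm; IC50 from curve fit as half-maximal inhibition of population doublings, eight replicates.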

Data set [2] deals with Clone A human colon cancer cells. The data set can be described thus: In vitro growth inhibition of Clone A cells (MTT, 72 hr). Format: cell-based. Particulars: read-out: Clone A IC50. In short, it runs like this:
as §1

Data set [3] concerns DLD-2 human colon tumor. The data set can be described thus: In vivo human tumor xenograft DLD-2 in nude mice. Particulars: for Tumor Growth Inhibition activity against DLD-2 (in words): NCI criteria. An excerpt:
(§2) The DLD-2 human colon tumor and MX-1 human mammary carcinoma, were originally obtained from a surgically-removed primary colon carcinoma or breast tumor respectively. The human tumor lines were maintained by serial passage in athymic nude mice. The MX-1 human mammary carcinoma is an established tumor used by the NCI. The DLD-2 human colon tumor has been well characterized. (Dexter, D. L.; Spremulli, E. N.; Matook, G. M.; Diamond, I.; Calabresi, P. Cancer Research 1982, 42, 5010; Dexter, D. L.; Barbosa, J. A.; Calabresi, P. Cancer Research 1979, 39, 1020.)
(§3) The mice used in these experiments were outbred Swiss mice or CD-1 mice bearing the nude (nu/nu) gene. On Day 0, male and female mice weighing 22-30 g are inoculated with 0.2 mL of a 25% tumor mince. This mince is prepared by mincing fresh tumor tissue, grown subcutaneously in passage mice, in sterile physiological saline. Palpable tumors weighing approximately 50 mg appear in the mice within 7-10 days after inoculation. The mice are pair matched by tumor weight and sex into groups of ten each and the test compounds and vehicle control are administered intravenously (i.v.) once daily for nine consecutive days. A >20% decrease in body weight on Day 5 following compound administration is considered an indication of toxicity. Tumor measurements and body weights are recorded once a week. Fifteen to eighteen days after the initial injection the mice are weighed, sacrificed, and the tumors excised and weighed.
(§4) The efficacy of the test compounds is determined by the extent of tumor growth inhibition in treated versus vehicle-treated control mice. Initial tumor weights (mg) are calculated from the tumor dimensions (mm) obtained from caliper measurements, using the formula for a prolate ellipsoid (mg of tumor weight=(length×width^2)/2). Net tumor weights are calculated for each of the treated groups and the vehicle-treated control group by subtracting the initial tumor weight from the final tumor weight (Day 15-18). Results are expressed as a percentage decrease relative to the mean tumor weight for the control vehicle-treated group.
(§5) Tumor Growth Inhibition= [formula]
(§6) The evaluation criteria of the National Cancer Institute for activity in in vivo cancer models were used. Tumor growth inhibition of 58-89% against the various xenografts is considered moderate activity, and inhibition of ≥90% is considered good to excellent activity. Actual tumor regressions (IR=incomplete regression; FR=full regression) indicate excellent to outstanding activity.
A general note: In xenograft studies the graft and the host belong to different species.

A short description of data set [4]: Solubility in water.
For data set [5], the system named is MX-1 human mammary carcinoma. The data set can be described thus: In vivo human tumor xenograft MX-1 in nude mice. Particulars: for Tumor Growth Inhibition activity against MX-1 (in words): NCI criteria.
Text: as §2, §3, §4, §5, §6

[6] abbreviates: i.v. once daily for nine days, nude mice.
Where [7] appears, read: Mus musculus, DLD2, iv, 216 h, read-out: DLD-2 percent tumor growth inhibition.

In brackets after ≈: the same amount, converted by molar mass. Like-named read-outs stand apart in the source and are kept apart here.

A word on the IC50: it is the concentration at which inhibition is half-maximal. For orientation: solubility means how much of the substance goes into solution per volume. The low end stands for a poorly soluble substance, the high end for a readily soluble substance. For the compound `CS(=O)(=O)O.O=C1c2cccc3c2c(cc2cccnc23)C(=O)N1CCCCNCCCN1C(=O)c2cccc3c2c(cc2cccnc23)C1=O` [Example 1, 4-[3-(5-Azaphenanthrene-1,10-dicarboximido)propylamino]-1-(5-azaphenanthrene-1,10-dicarboximido) butane Hydromethanesulfonate], the IC50 in data set [1] (L1210 cells, 72 hr, MTT) was 0.134 µg/mL; in data set [2] (Clone A cells, 72 hr, MTT), 60 ng/mL. Further, the inhibition in vivo at 25 mg/kg in data set [3] (Mus musculus, DLD2, iv, 216 h, 25 mg/kg, i.v. once daily for nine days, nude mice, read-out: DLD-2 percent tumor growth inhibition) came out at 16%. This compound returned a solubility in data set [4] of 2300 µg/mL.

Take `O=C1c2cc([N+](=O)[O-])cc3c2c(cc2cccnc23)C(=O)N1CCNCCN1C(=O)c2cc([N+](=O)[O-])cc3c2c(cc2cccnc23)C1=O` [Example 2, 2-[3-(3-Nitro-5-azaphenanthrene-1,10-dicarboximido)ethylamino]-1-(3-nitro-5-azaphenanthrene-1, 10-dicarboximido)ethane Hydromethanesulfonate]: the half-inhibitory concentration (IC50) in data set [1] (L1210 cells, 72 hr, MTT) was found to be 0.02 µg/mL; in data set [2] (Clone A cells, 72 hr, MTT), 44 ng/mL. Moreover, the inhibition in vivo at 12.5 mg/kg in data set [3] (Mus musculus, DLD2, iv, 216 h, 12.5 mg/kg, i.v. once daily for nine days, nude mice, read-out: DLD-2 percent tumor growth inhibition) worked out at 0%. Further, the solubility in data set [4] came to 10 µg/mL.

On to `CS(=O)(=O)O.CS(=O)(=O)O.Cc1cnc2c(c1)cc1c3c(cc([N+](=O)[O-])cc32)C(=O)N([C@H](C)CNCCNC[C@@H](C)N2C(=O)c3cccc4cc([N+](=O)[O-])cc(c34)C2=O)C1=O` [Example 117, (R,R)-1-[2-(3-Nitro-7-methyl-5-azaphenanthrene-1, 10-dicarboximido)propylamino]-2-[2-(3-nitronaphthalene-1,8-dicarboximido)propylamino]ethane Dihydromethanesulfonate], for which the IC50 amounted to 0.036 µg/mL in data set [1] (L1210, 72 h) and 2 ng/mL in data set [2] (72 h). Also, the responders at 6 mg/kg in data set [5] (Mus musculus, iv, 216 h, read-out: MX-1 tumor regressions, IR=incomplete regression) is 100%. Besides, the “Tumor Growth Inhibition activity against MX-1 (in words)” value in data set [5] (setting [6]) is given as “moderate to excellent”. In data set [4], this compound registered a solubility of 8700 µg/mL.

As to `CS(=O)(=O)O.CS(=O)(=O)O.Cc1nc2cc3c4c(cccc4c2[nH]1)C(=O)N(CCCNCCCCN1C(=O)c2cccc4cc([N+](=O)[O-])cc(c24)C1=O)C3=O` [Example 140, 4-[3-(2-Methyl-1H-naphth[1,2-d]imidazole-5,6-dicarboximido)propylamino]-1-(3-nitronaphthalene-1,8-dicarboximido)butane Dihydromethanesulfonate], the 50% inhibitory concentration (IC50) was determined as 0.425 µg/mL in data set [1] (L1210 cells, 72 hr, MTT) and 101 ng/mL in data set [2] (Clone A cells, 72 hr, MTT). For the same compound, the inhibition in vivo at 50 mg/kg in data set [3] (Mus musculus, DLD2, iv, 216 h, 50 mg/kg, i.v. once daily for nine days, nude mice, read-out: DLD-2 percent tumor growth inhibition) was determined as 0%. The solubility in data set [4] was determined as 9000 µg/mL.

As for `CS(=O)(=O)O.O=C1c2cc([N+](=O)[O-])cc3c2c(cc2cccnc23)C(=O)N1CCCCNCCCN1C(=O)c2cc([N+](=O)[O-])cc3c2c(cc2cccnc23)C1=O` [Example 5, 4-[3-(3-Nitro-5-azaphenanthrene-1, 10-dicarboximido)propylamino]-1-(3-nitro-5-azaphenanthrene-1, 10-dicarboximido)butane Hydromethanesulfonate], the IC50 in data set [1] (L1210, 72 h) was found to be 0.006 µg/mL; in data set [2] (72 h), 13 ng/mL. The inhibition in vivo at 10 mg/kg in data set [3] (setting [7]) amounted to 82%. For the same compound, the “Tumor Growth Inhibition activity against DLD-2 (in words)” value in data set [3] (setting [6]) is given as “moderate to excellent”. The same compound returned a solubility in data set [4] of 60 µg/mL.

`CS(=O)(=O)O.O=C1c2cc([N+](=O)[O-])cc3c2c(cc2cccnc23)C(=O)N1CCCNCCCN1C(=O)c2cc([N+](=O)[O-])cc3c2c(cc2cccnc23)C1=O` [Example 4, 3-[3-(3-Nitro-5-azaphenanthrene-1,10-dicarboximido)propylamino]-1-(3-nitro-5-azaphenanthrene-1, 10-dicarboximido)propane Hydromethanesulfonate]: the IC50 came to 0.011 µg/mL in data set [1] (L1210, 72 h) and 5 ng/mL in data set [2] (72 h). Also, the inhibition in vivo at 10 mg/kg in data set [3] (setting [7]) came to 57%. The compound also had a solubility in data set [4] of 450 µg/mL.

For `CS(=O)(=O)O.CS(=O)(=O)O.O=C1c2cc([N+](=O)[O-])cc3c2c(cc2ncccc23)C(=O)N1CCNCCNCCN1C(=O)c2cc([N+](=O)[O-])cc3c2c(cc2ncccc23)C1=O` [Example 19, 1,2-bis-[2-(3-Nitro-8-azaphenanthrene-1,10-dicarboximido)ethylamino]ethane Dihydromethanesulfonate], the IC50 in data set [1] (L1210, 72 h) was 0.013 µg/mL; in data set [2] (72 h), 9 ng/mL. For the same compound, in data set [5] (Mus musculus, iv, 216 h, read-out: MX-1 percent tumor growth inhibition), the inhibition in vivo at 6 mg/kg worked out at 84%. For the same compound, the “Tumor Growth Inhibition activity against MX-1 (in words)” value in data set [5] (setting [6]) was “moderate to excellent”. In addition, the solubility in data set [4] was 950 µg/mL.

In the case of `CS(=O)(=O)O.O=C1c2cc([N+](=O)[O-])cc3c2c(cc2ncccc23)C(=O)N1CCCCNCCCN1C(=O)c2cc([N+](=O)[O-])cc3c2c(cc2ncccc23)C1=O` [Example 18, 4-[3-(3-Nitro-8-azaphenanthrene-1,10-dicarboximido)propylamino]-1-(3-nitro-8-azaphenanthrene-1, 10-dicarboximido)butane Hydromethanesulfonate], the IC50 was 0.001 µg/mL in data set [1] (L1210, 72 h) and 7 ng/mL in data set [2] (72 h). In data set [3] (setting [7]), the inhibition in vivo at 12.5 mg/kg came to 84%. In addition, the “Tumor Growth Inhibition activity against DLD-2 (in words)” value in data set [3] (setting [6]) is listed as “moderate to excellent”. Moreover, in data set [4], the solubility came to 20 µg/mL.

With `CS(=O)(=O)O.O=C1c2cc([N+](=O)[O-])cc3c2c(cc2cccnc23)C(=O)N1CCCNCCN1C(=O)c2cc([N+](=O)[O-])cc3c2c(cc2cccnc23)C1=O` [Example 3, 3-[2-(3-Nitro-5-azaphenanthrene-1,10-dicarboximido)ethylamino]-1-(3-nitro-5-azaphenanthrene-1, 10-dicarboximido) propane Hydromethanesulfonate], the IC50 in data set [1] (L1210, 72 h) is 0.006 µg/mL; in data set [2] (72 h), 4 ng/mL. The inhibition in vivo at 20 mg/kg in data set [3] (setting [7]) was 92%. In data set [3] (setting [6]), the “Tumor Growth Inhibition activity against DLD-2 (in words)” value is recorded as “moderate to excellent”. The compound also came in with a solubility in data set [4] of 80 µg/mL.

For the compound `Cc1cnc2c(c1)cc1c3c(cc([N+](=O)[O-])cc32)C(=O)N(CCCNCCN2C(=O)c3cc([N+](=O)[O-])cc4c3c(cc3cc(C)cnc34)C2=O)C1=O` [Example 22], the IC50 in data set [1] (L1210 cells, 72 hr, MTT) is 0.02 µg/mL (≈ 0.0287 µM); in data set [2] (Clone A cells, 72 hr, MTT), 3 ng/mL (≈ 0.0043 µM). Besides, the inhibition in vivo at 25 mg/kg in data set [5] (Mus musculus, iv, 216 h, 25 mg/kg, i.v. once daily for nine days, nude mice, read-out: MX-1 percent tumor growth inhibition) stood at 0%. In addition, the concentration in solution in data set [4] (solubility) was 30 µg/mL (≈ 43 µM).

`CS(=O)(=O)O.CS(=O)(=O)O.C[C@@H](CNCCNC[C@H](C)N1C(=O)c2cc([N+](=O)[O-])cc3c2c(cc2cccnc23)C1=O)N1C(=O)c2cc([N+](=O)[O-])cc3c2c(cc2cccnc23)C1=O` [Example 7, (S,S)-1,2-bis-[2-(3-Nitro-5-azaphenanthrene-1,10-dicarboximido)propylamino]ethane Dihydromethanesulfonate]: the IC50 came out at 0.048 µg/mL in data set [1] (L1210, 72 h) and 28 ng/mL in data set [2] (72 h). Further, in data set [3] (setting [7]), the inhibition in vivo at 12.5 mg/kg was 83%. In addition, the “Tumor Growth Inhibition activity against DLD-2 (in words)” value in data set [3] (setting [6]) is given as “moderate to excellent”. The compound further showed a solubility in data set [4] of 680 µg/mL.

Turning to `CS(=O)(=O)O.O=C1c2cccc3c2c(cc2ncccc23)C(=O)N1CCCCNCCCN1C(=O)c2cccc3c2c(cc2ncccc23)C1=O` [Example 17, 4-[3-(8-Azaphenanthrene-1,10-dicarboximido)propylamino]-1-(8-azaphenanthrene-1,10-dicarboximido) butane Hydromethanesulfonate], the IC50 in data set [1] (L1210 cells, 72 hr, MTT) came out at 0.001 µg/mL; in data set [2] (Clone A cells, 72 hr, MTT), 1 ng/mL. For the same compound, the inhibition in vivo at 6.2 mg/kg in data set [3] (Mus musculus, DLD2, iv, 216 h, 6.2 mg/kg, i.v. once daily for nine days, nude mice, read-out: DLD-2 percent tumor growth inhibition) is 59%. In data set [3] (setting [6]), the “Tumor Growth Inhibition activity against DLD-2 (in words)” value was “moderate to excellent”.
